Data as given in patent US20240091267A1, “PRE-TREATMENT OF MSC WITH PPARB/DELTA AGONIST FOR TREATMENT OF ISCHEMIA-REPERFUSION INJURY” (Universite de Montpellier, priority 2020, published 2024).
Read-outs that look alike come from different tables or passages of the source.

Key:
H9c2 cardiomyocytes = assay: Transwell co-culture of MSC with H9c2 exposed to H2O2, specific DNA fragmentation in H9c2; format: cell-based, rattus norvegicus; details: vs naive MSC
Description: FIG. 7: Increased anti-apoptotic effects of PPARβ/δ-primed MSC on cardiomyocytes. (A) After 24 hours of MSC pharmacological preconditioning using PPARβ/δ agonist, cells were co-cultured using transwells (upper chamber) with H9c2 (lower chamber). Both cultures were exposed to 4 hours of 350 μM of H2O2 in minimal medium (serum deprivation). At the end of the protocol, specific DNA fragmentation was quantified in H9c2 cells and values were compared with those obtained for co-cultures with naive MSC or MSC pre-treated with PPARβ/δ antagonists (GSK0660 or GSK03787) and exposed to 350 H2O2μM (B, C, D) Scatter dot plot and bars were presented for specific DNA fragmentation quantified in H9c2 at the end of the protocols. Data (mean±SD for each group of treatment) were normalized by values obtained with naive MSC/H2O2 and compared using Kruskal-Wallis (Dunn's post hoc test). (B): data were obtained using the condition 1 protocol. (C): the condition 2 protocol P was followed and p value was noted **** for p<0.0001 (MSC, n=16 independent cultures vs MSC/H2O2, n=18). For the data obtained with condition 3 protocol (D), p value was noted * for p=0.0436 (MSC+1 μM GSK0660/H2O2, n=6 vs MSC/H2O2, n=10).
H9c2, rattus norvegicus cardiomyocytes, were cultured in Dulbecco's modified Eagle's medium (DMEM), supplemented with 10% fetal bovine serum (FBS), 100 Units/mL penicillin, and 100 μg/mL streptomycin. To induce apoptosis, H9c2 were cultured in a minimal medium (without FBS) containing 350 μM of H2O2 during 4 hours. In order to evaluate the effect of MSCs on cardiomyocytes, a co-culture assay was designed using the transwell system to avoid cell-cell contact. 15,000 cardiomyocytes (lower part) were plated per well of a 12-well dish with or 15,000 MSC (upper part) in presence of 350 OA of H2O2. Two different protocols of co-culture were performed. In protocol 1, H9c2 and co-cultured MSC were exposed to H2O2(with serum deprivation). In protocol 2, H9c2 were exposed to H2O2 in minimal medium during 4 hours and after a wash, cells were co-cultured in complete medium with MSC. In protocol 3, H9c2 were cultured in presence of H2O2 during 4 hours in regular medium deprived in serum, which was continued for an extra 1 hour. Then the co-culture of H9c2 with MSC was performed in complete medium for 1 hour. At the end of all protocols, H9c2 were recovered for apoptosis and RT-qPCR analysis.
DNA fragmentation was quantified in vitro on cell lysates with an enzyme-linked immunosorbent assay kit (Cell Death ELISA; Roche Diagnostics) designed to measure of histone-complexed DNA fragments (mono- and oligonucleosomes) out of the cytoplasm of cells after the induction of apoptosis.
To determine the role of PPARβ/δ on MSC-induced protective effect on cardiomyocytes we designed and developed three protocols in order to mimic the stress received by MSC when transplanted into infarcted tissues. The first protocol consisted in co-culturing naive or primed MSC with H9c2 exposed to 350 μM of H2O2 for 4 hours using transwell. The second protocol consisted in exposing […] μM of H2O2 for 4 hours before to co-culture them with naive or primed MSC in a complete medium. The third protocol consisted in exposing H9c2 to 350 μM of H2O2 for 4 hours followed by serum deprivation for 1 hour before to co-culture them with naive or primed MSC in a complete medium (FIG. 7A).

[1] = system: isolated perfused hearts from C57B16 mice; assay: Ex vivo Langendorff ischemia-reperfusion, infarct size, effect of preconditioning duration (Example 3); set-up: species or system mouse (C57BL/6); details: 4.10^5 cells/heart; for Decrease in infarct size: vs IR
[2] = 3 mg/kg/day, mice; cited from earlier work
[3] = 3 mg/kg/day, rats; cited from earlier work
[4] = system: cardiomyoblast cell line H9c2; details: H9c2 cardiomyoblasts; cited from earlier work

Row | SMILES | Specific DNA fragmentation in H9c2 (anti-apoptotic effect of MSC) (H9c2 cardiomyocytes; protocol 1: MSC pretreated 24 h with 1 μM, co-cultured with H9c2 under 350 μM H2O2 4 h) | Specific DNA fragmentation in H9c2 (anti-apoptotic effect of MSC) (H9c2 cardiomyocytes; protocol 2: H9c2 exposed to 350 μM H2O2 4 h, then co-culture in complete medium with MSC pretreated with 1 μM) | Specific DNA fragmentation in H9c2 (anti-apoptotic effect of MSC) (H9c2 cardiomyocytes; protocol 3: H9c2 350 μM H2O2 4 h, serum deprivation 1 h, then co-culture in complete medium with MSC pretreated with 1 μM) | Infarct size, mean value ([1]; MSC preconditioned 24 h (1-day) with 0.1 μM, n=7) | Decrease in infarct size ([1]; MSC preconditioned 24 h with 0.1 μM) [%] | Decrease in infarct size ([1]; MSC preconditioned 4 days (96 h) with 0.1 μM) [%] | Infarct size, mean value ([1]; MSC preconditioned 4 days with 0.1 μM, n=8) [%] | Carcinogenicity [2] | Carcinogenicity [3] | Protection from H2O2-induced cell death [4]
1 | O=C(NCCS(=O)(=O)c1ccc(C(F)(F)F)cn1)c1ccc(Cl)cc1 [GSK3787] | lose their capacity to protect cardiomyocytes from apoptosis | did not change MSC protective properties | lose their capacity to protect cardiomyocytes from apoptosis |  |  |  |  |  |  | 
2 | Cc1cc(SCc2sc(-c3ccc(C(F)(F)F)cc3)nc2C)ccc1OCC(=O)O [GW501516] |  |  |  | 37.4 % of LV mass | 52.8 | 54.5 | 36.05 | caused cancer to develop rapidly in several organs | caused cancer to develop rapidly in several organs | protect the cardiomyoblast cell line H9c2 from H2O2-induced cell death
